Source: paper PMC9501633, “Synthesis, Characterisation and Mechanism of Action of Anticancer 3-Fluoroazetidin-2-ones” (Pharmaceuticals, 2022)
Where “and” joins values, the source holds several entries; their conditions need not be identical. Equal values may be shown once. Read-outs that look alike come from different tables or passages of the source.

How the values were obtained:
[1] = test system: MALME-3M; assay: NCI 60 cell line screen, Melanoma; type: cell-based, human
[2] = test system: HL-60(TB); assay: NCI 60 cell line screen, Leukaemia; type: cell-based, human
[3] = test system: PC-3; assay: NCI 60 cell line screen, Prostate; type: cell-based, human
[4] = test system: OVCAR-5; assay: NCI 60 cell line screen, Ovarian; type: cell-based, human
[5] = test system: OVCAR-3; assay: NCI 60 cell line screen, Ovarian; type: cell-based, human
[6] = test system: HCT-15; assay: NCI 60 cell line screen, Colon; type: cell-based, human
[7] = test system: IGROV1; assay: NCI 60 cell line screen, Ovarian; type: cell-based, human
[8] = test system: NCI-H522; assay: NCI 60 cell line screen, NSCLung; type: cell-based, human
[9] = test system: MOLT-4; assay: NCI 60 cell line screen, Leukaemia; type: cell-based, human
[10] = test system: M14; assay: NCI 60 cell line screen, Melanoma; type: cell-based, human; details: for GI50: 5-dose, 48 h
[11] = test system: BT-549; assay: NCI 60 cell line screen, Breast; type: cell-based, human
[12] = test system: ACHN; assay: NCI 60 cell line screen, Renal; type: cell-based, human; details: one dose 10 µM
[13] = test system: T-47D; assay: NCI 60 cell line screen, Breast; type: cell-based, human
[14] = test system: RPMI-8226; assay: NCI 60 cell line screen, Leukaemia; type: cell-based, human
[15] = test system: MDA-MB-468; assay: NCI 60 cell line screen, Breast; type: cell-based, human
[16] = test system: NCI/ADR-RES; assay: NCI 60 cell line screen, Ovarian; type: cell-based, human
[17] = test system: SNB-19; assay: NCI 60 cell line screen, CNS; type: cell-based, human
[18] = test system: HS 578T; assay: NCI 60 cell line screen, Breast; type: cell-based, human
[19] = test system: NCI 60 cell line panel; assay: NCI 60 cell line screen, whole panel; type: cell-based; details: for GI50: read-out: MG-MID GI50
Procedure: The antiproliferative effects of selected compounds 33, 37 and 43 were initially evaluated in the NCI 60 cell line screen at 10 μM concentration (see Supplementary Materials Table S3). […] . […] .
Compound 33 was next selected for evaluation in the NCI 60 cell line five-dose screen. The GI50 (50% growth inhibition), TGI (total growth inhibition) and LC50 (50% lethal concentration) were determined in the NCI panel of 60 cell lines, using the sulphorhodamine B (SRB) protein assay (Table 5). The GI50 value provides the growth inhibition of the selected compound, while the cytotoxic effect is evaluated in the LC50 value. […] . […] . Glioblastoma is an aggressive and fast-growing brain tumour with a median survival time of 9–16 months from diagnosis, and these tumours quickly evolve resistance to temozolomide chemotherapy, which is the only FDA-approved treatment. […] . Further mechanistic and cellular studies were carried out and are described below.
(§1) aData obtained from NCI in vitro human tumour cell screen 1 dose assay (10 µM). 33 (NCI

[20] = test system: 786–0; assay: NCI 60 cell line screen, Renal; type: cell-based, human
[21] = test system: UO-31; assay: NCI 60 cell line screen, Renal; type: cell-based, human
[22] = test system: SN12C; assay: NCI 60 cell line screen, Renal; type: cell-based, human
[23] = test system: A498; assay: NCI 60 cell line screen, Renal; type: cell-based, human
[24] = test system: SF-268; assay: NCI 60 cell line screen, CNS; type: cell-based, human
[25] = test system: leukaemia panel; assay: NCI 60 cell line one-dose screen, panel mean; type: cell-based; details: Homo sapiens, one dose 10 μM, read-out: mean growth inhibition
Procedure: The antiproliferative effects of selected compounds 33, 37 and 43 were initially evaluated in the NCI 60 cell line screen at 10 μM concentration (see Supplementary Materials Table S3).
as §1

[26] = test system: KM12; assay: NCI 60 cell line screen, Colon; type: cell-based, human
[27] = test system: SF-539; assay: NCI 60 cell line screen, CNS; type: cell-based, human
[28] = test system: SK-OV-3; assay: NCI 60 cell line screen, Ovarian; type: cell-based, human
[29] = test system: UACC-257; assay: NCI 60 cell line screen, Melanoma; type: cell-based, human
[30] = test system: SR; assay: NCI 60 cell line screen, Leukaemia; type: cell-based, human
[31] = test system: NCI-H23; assay: NCI 60 cell line screen, NSCLung; type: cell-based, human
[32] = test system: K-562; assay: NCI 60 cell line screen, Leukaemia; type: cell-based, human
[33] = 5-dose assay, 48 h, mean-graph midpoint

COc1ccc(C2C(F)C(=O)N2c2cc(OC)c(OC)c(OC)c2)cc1F (stereo not drawn) [Compound 33, 3-Fluoro-4-(3-fluoro-4-methoxyphenyl)-1-(3,4,5-trimethoxyphenyl)azetidin-2-one]
TGI ([1]; 5-dose, 48 h): >100000 nM
inhibition at 10 µM ([1]; Homo sapiens, one dose 10 µM): 26%
Growth % ([1]; one dose 10 µM): 74.02%
TGI ([2]; 5-dose, 48 h): 399 nM
GI50 ([2]; Homo sapiens, 5-dose, 48 h): 80.5 nM
inhibition at 10 µM ([2]; Homo sapiens, one dose 10 µM): 115%
Growth % ([2]; one dose 10 µM): -14.69%
TGI ([3]; 5-dose, 48 h): >100000 nM
GI50 ([3]; Homo sapiens, 5-dose, 48 h): 42 nM
inhibition at 10 µM ([3]; Homo sapiens, one dose 10 µM): 76.9%
Growth % ([3]; one dose 10 µM): 23.13%
TGI ([4]; 5-dose, 48 h): >100000 nM
GI50 ([4]; Homo sapiens, 5-dose, 48 h): 423 nM
inhibition at 10 µM ([4]; Homo sapiens, one dose 10 µM): 56.4%
Growth % ([4]; one dose 10 µM): 43.57%
TGI ([5]; 5-dose, 48 h): 492 nM
GI50 ([5]; Homo sapiens, 5-dose, 48 h): 46.5 nM
inhibition at 10 µM ([5]; Homo sapiens, one dose 10 µM): 104%
Growth % ([5]; one dose 10 µM): -4.18%
TGI ([6]; 5-dose, 48 h): >100000 nM
GI50 ([6]; Homo sapiens, 5-dose, 48 h): 66.4 nM
inhibition at 10 µM ([6]; Homo sapiens, one dose 10 µM): 86.4%
Growth % ([6]; one dose 10 µM): 13.63%
TGI ([7]; 5-dose, 48 h): >100000 nM
GI50 ([7]; Homo sapiens, IGROV-1, 5-dose, 48 h): 94.6 nM
inhibition at 10 µM ([7]; Homo sapiens, IGROV-1, one dose 10 µM): 68.1%
Growth % ([7]; one dose 10 µM): 31.88%
GI50 ([8]; 5-dose, 48 h): 38.3 nM
TGI ([8]; 5-dose, 48 h): >100000 nM
GI50 ([8]; Homo sapiens, NCI-H522, 48 h, 5-dose, 48 h): 38 nM
inhibition at 10 µM ([8]; Homo sapiens, one dose 10 µM): 108%
Growth % ([8]; one dose 10 µM): -8.46%
TGI ([9]; 5-dose, 48 h): 93400 nM
GI50 ([9]; Homo sapiens, 5-dose, 48 h): 146 nM
inhibition at 10 µM ([9]; Homo sapiens, one dose 10 µM): 80.3%
Growth % ([9]; one dose 10 µM): 19.7%
GI50 [10]: 25.4 nM
GI50 ([10]; Homo sapiens, M14, 48 h): 25 nM
inhibition at 10 µM ([10]; Homo sapiens, one dose 10 µM): 98.1%
Growth % ([10]; one dose 10 µM): 1.91%
TGI ([11]; 5-dose, 48 h): 33800 nM
GI50 ([11]; Homo sapiens, 5-dose, 48 h): 49.8 nM
inhibition at 10 µM ([11]; Homo sapiens, one dose 10 µM): 84.7%
Growth % ([11]; one dose 10 µM): 15.26%
inhibition at 10 µM ([12]; Homo sapiens): 67.3%
Growth % [12]: 32.67%
TGI ([13]; 5-dose, 48 h): >100000 nM
inhibition at 10 µM ([13]; Homo sapiens, T47D, one dose 10 µM): 25.1%
Growth % ([13]; one dose 10 µM): 74.94%
TGI ([14]; 5-dose, 48 h): 37300 nM
GI50 ([14]; Homo sapiens, 5-dose, 48 h): 55 nM
inhibition at 10 µM ([14]; Homo sapiens, one dose 10 µM): 84.7%
Growth % ([14]; one dose 10 µM): 15.32%
GI50 ([15]; Homo sapiens, 5-dose, 48 h): 106 nM
inhibition at 10 µM ([15]; Homo sapiens, one dose 10 µM): 77%
Growth % ([15]; one dose 10 µM): 23%
GI50 ([16]; 5-dose, 48 h): 42.4 nM
TGI ([16]; 5-dose, 48 h): >100000 nM
GI50 ([16]; Homo sapiens, 48 h, 5-dose): 42 nM
inhibition at 10 µM ([16]; Homo sapiens, one dose 10 µM): 91.6%
Growth % ([16]; one dose 10 µM): 8.4%
TGI ([17]; 5-dose, 48 h): >100000 nM
GI50 ([17]; Homo sapiens, 5-dose, 48 h): 302 nM
inhibition at 10 µM ([17]; Homo sapiens, one dose 10 µM): 66%
Growth % ([17]; one dose 10 µM): 34.05%
TGI ([18]; 5-dose, 48 h): >100000 nM
GI50 ([18]; Homo sapiens, 5-dose, 48 h): 295 nM
inhibition at 10 µM ([18]; Homo sapiens, one dose 10 µM): 74.5%
Growth % ([18]; one dose 10 µM): 25.54%
MG-MID TGI [19, 33]: 52480 nM and 52400 nM
GI50 [19, 33]: 223 nM
GI50 ([19]; Homo sapiens, 60 cell, 48 h, 5-dose assay, 48 h, mean-graph midpoint): 224 nM
inhibition at 10 µM ([19]; Homo sapiens, 60 cell, one dose 10 μM, mean over the 60 cell lines, read-out: mean growth inhibition): 76.3%
CC50 ([19]; Homo sapiens, 60 cell, 5-dose assay, 48 h, mean-graph midpoint, read-out: MG-MID LC50): 95500 nM
CC50 ([19]; Homo sapiens, all cell lines except COLO 205 and SK-MEL-5, 5-dose, 48 h, read-out: LC50 (the source's name)): > 100000 nM
mean Growth % ([19]; one dose 10 µM, mean over the cell lines): 23.66%
Growth % ([20]; 786-0, one dose 10 µM): 22.92%
TGI ([20]; 786–0, 5-dose, 48 h): 15100 nM
inhibition at 10 µM ([20]; Homo sapiens, 786-0, one dose 10 µM): 77.1%
GI50 ([20]; Homo sapiens, 786–0, 5-dose, 48 h): 46.2 nM
TGI ([21]; 5-dose, 48 h): >100000 nM
GI50 ([21]; Homo sapiens, 5-dose, 48 h): 171 nM
inhibition at 10 µM ([21]; Homo sapiens, one dose 10 µM): 56.8%
Growth % ([21]; one dose 10 µM): 43.2%
TGI ([22]; 5-dose, 48 h): >100000 nM
GI50 ([22]; Homo sapiens, 5-dose, 48 h): 482 nM
inhibition at 10 µM ([22]; Homo sapiens, one dose 10 µM): 66.7%
Growth % ([22]; one dose 10 µM): 33.29%
TGI ([23]; 5-dose, 48 h): 8080 nM
GI50 ([23]; Homo sapiens, 5-dose, 48 h): 847 nM
inhibition at 10 µM ([23]; Homo sapiens, one dose 10 µM): 106%
Growth % ([23]; one dose 10 µM): -5.5%
TGI ([24]; 5-dose, 48 h): >100000 nM
GI50 ([24]; Homo sapiens, 5-dose, 48 h): 324 nM
inhibition at 10 µM ([24]; Homo sapiens, one dose 10 µM): 66.9%
Growth % ([24]; one dose 10 µM): 33.13%
inhibition at 10 µM [25]: 90.6%
TGI ([26]; 5-dose, 48 h): >100000 nM
GI50 ([26]; Homo sapiens, 5-dose, 48 h): 59.6 nM
inhibition at 10 µM ([26]; Homo sapiens, one dose 10 µM): 89.3%
Growth % ([26]; one dose 10 µM): 10.73%
TGI ([27]; 5-dose, 48 h): 217 nM
GI50 ([27]; Homo sapiens, 5-dose, 48 h): 28 nM
inhibition at 10 µM ([27]; Homo sapiens, one dose 10 µM): 95.8%
Growth % ([27]; one dose 10 µM): 4.17%
TGI ([28]; 5-dose, 48 h): >100000 nM
GI50 ([28]; Homo sapiens, 5-dose, 48 h): 3450 nM
inhibition at 10 µM ([28]; Homo sapiens, one dose 10 µM): 66.6%
Growth % ([28]; one dose 10 µM): 33.36%
TGI ([29]; 5-dose, 48 h): >100000 nM
GI50 ([29]; Homo sapiens, 5-dose, 48 h): > 100000 nM
inhibition at 10 µM ([29]; Homo sapiens, one dose 10 µM): 61.3%
Growth % ([29]; one dose 10 µM): 38.74%
TGI ([30]; 5-dose, 48 h): >100000 nM
GI50 ([30]; Homo sapiens, 5-dose, 48 h): 40.8 nM
inhibition at 10 µM ([30]; Homo sapiens, one dose 10 µM): 86.7%
Growth % ([30]; one dose 10 µM): 13.28%
TGI ([31]; 5-dose, 48 h): >100000 nM
GI50 ([31]; Homo sapiens, 5-dose, 48 h): 273 nM
inhibition at 10 µM ([31]; Homo sapiens, one dose 10 µM): 78.7%
Growth % ([31]; one dose 10 µM): 21.3%
GI50 ([32]; 5-dose, 48 h): 38.3 nM
TGI ([32]; 5-dose, 48 h): >100000 nM
GI50 ([32]; Homo sapiens, K562, 48 h, 5-dose, 48 h): 38 nM
inhibition at 10 µM ([32]; Homo sapiens, K562, one dose 10 µM): 90.5%
Growth % ([32]; one dose 10 µM): 9.45%
